# Values quoted from earlier work, collected in patent US20240366636A1, “ORAL CANNABINOID PHARMACEUTICAL COMPOSITIONS AND METHODS OF TREATING INFLAMMATORY GASTROINTESTINAL DISORDERS” (Curio IP, LLC, priority 2022, published 2024).
# Assays:
# [1] = target: cannabinoid CB2 receptor (Homo sapiens, UniProt P34972)
# [2] = humans
# [3] = tested on: DNBS-induced intestinal inflammation; conditions: murine
# cannabinoid CB2 receptor, sequence (P34972 whole entry): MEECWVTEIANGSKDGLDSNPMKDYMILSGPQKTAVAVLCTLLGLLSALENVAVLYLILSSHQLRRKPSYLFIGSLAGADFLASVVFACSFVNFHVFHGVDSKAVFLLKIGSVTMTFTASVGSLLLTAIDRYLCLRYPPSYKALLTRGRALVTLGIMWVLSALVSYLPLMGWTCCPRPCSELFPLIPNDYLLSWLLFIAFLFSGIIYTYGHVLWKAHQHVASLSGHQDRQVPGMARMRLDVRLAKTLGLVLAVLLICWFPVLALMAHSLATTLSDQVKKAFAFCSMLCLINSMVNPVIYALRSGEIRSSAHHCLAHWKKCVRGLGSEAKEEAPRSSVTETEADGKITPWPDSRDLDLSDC
compound,measurement,setting,value
"C=C(C)[C@@H]1CCC(C)=C[C@H]1c1c(O)cc(CCCCC)cc1O [CBD, cannabidiol]",affinity for CB2 receptor,[1],low affinity
same,oral bioavailability,[2],approximately 6%
"CCCCCc1cc(O)c2c(c1)OC(C)(C)[C@@H]1CCC(C)=C[C@@H]21 [THC, (−)-(6aR,10aR)-6,6,9-trimethyl-3-pentyl-6a,7,8,10a-tetrahydro-6H-benzo[c]chromen-1-ol]",peak plasma levels,following smoking of the equivalent of 10-15 mg over 5-7 minutes,around 100 μg/L
same,half-life,"plasma, when cannabis is smoked",2 h
same,Bioavailability,smoking route,2-56%
Cannabigerol [CBG],DNBS-induced intestinal inflammation and permeability,[3],attenuated
same,Interleuken-1β (IL-1β) levels,[3]; DNBS,reduced
same,myeloperoxidase (MPO) activity,[3]; DNBS,reduced
